# According to patent publication US6355799B1, “Substituted benzene compounds, process for their preparation, and herbicidal and defoliant compositions containing them” (ISK Americas Incorporated, priority 1997, dated 2002):
# What was measured:
# Type in all cases: in vivo
# [1] = test system: upland rice (Oryza sp., var. Tebonnet, RICE); assay: Pre-emerge test, crop safety; conditions: pre-emerge, 14 days after application, rating scale 0-100
# Procedure, shortened: (§1)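 Compounds in acetone were track-sprayed at 187 l/ha, 15–1000 g ai/ha, onto sandy loam pots. Pre-emerge seeds were sown one day before spraying, with surface watering afterwards. Post-emerge plants were at the 2–3 leaf stage and sprayed with 0.25% v/v non-ionic surfactant. Injury was rated 0–100 at 14 days.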
# [2] = test system: field corn (Zea mays L., var. Dekalb 535, CORN); assay: Pre-emerge test, crop safety; conditions: pre-emerge, 14 days after application, rating scale 0-100
# Procedure, shortened: as §1
# [3] = test system: redroot pigweed (Amaranthus retroflexus, AMARE); assay: Pre-emerge test, greenhouse herbicide activity screening; conditions: pre-emerge, 14 days after application, rating scale 0-100
# Procedure, shortened: as §1
# [4] = test system: upland rice (Oryza sp., var. Tebonnet, RICE); assay: Post-emerge test, crop safety; conditions: post-emerge, 14 days after application, rating scale 0-100
# Procedure, shortened: (§2)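 Herbicidal damage is scored 0 (none) to 100 (complete plant death) two weeks after a simulated field spray. Rates span 15–1000 g ai/ha, delivered in acetone at 187 l/ha. For post-emergence treatments, plants have 2–3 leaves and the spray carries 0.25% v/v non-ionic surfactant.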
# [5] = test system: field corn (Zea mays L., var. Dekalb 535, CORN); assay: Post-emerge test, crop safety; conditions: post-emerge, 14 days after application, rating scale 0-100
# Procedure, shortened: as §2
# [6] = test system: barnyardgrass (Echinochloa crus-galli, ECHCG); assay: Post-emerge test, greenhouse herbicide activity screening; conditions: post-emerge, 14 days after application, rating scale 0-100
# Procedure, shortened: (§3)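 Compounds in acetone were track-sprayed at 15-1000 g ai/ha (187 l/ha) on sandy loam pots: pre-emerge one day after seeding, post-emerge at 2-3 leaf stage with 0.25% v/v non-ionic surfactant. Phytotoxicity was rated 14 days later on a 0 (no damage) to 100 (complete death) scale.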
# [7] = test system: large crabgrass (Digitaria sanguinalis, DIGSA); assay: as above; conditions: post-emerge, 14 days after application, rating scale 0-100
# Procedure, shortened: as §3
# [8] = test system: ivyleaf morningglory (Ipomoea hederacea, IPOHE); assay: as above; conditions: post-emerge, 14 days after application, rating scale 0-100
# Procedure, shortened: as §3
# [9] = test system: lambsquarters (Chenopodium album, CHEAL); assay: as above; conditions: post-emerge, 14 days after application, rating scale 0-100
# Procedure, shortened: as §3
# [10] = test system: johnsongrass (Sorghum halepense, SORHA); assay: as above; conditions: post-emerge, 14 days after application, rating scale 0-100
# Procedure, shortened: as §3
# [11] = test system: redroot pigweed (Amaranthus retroflexus, AMARE); assay: as above; conditions: post-emerge, 14 days after application
# Procedure, shortened: as §3
# [12] = test system: sicklepod (Cassia obtusifolia, CASOB); assay: as above; conditions: post-emerge, 14 days after application, rating scale 0-100
# Procedure, shortened: as §3
# [13] = test system: velvetleaf (Abutilon theophrasti, ABUTH); assay: as above; conditions: post-emerge, 14 days after application, rating scale 0-100
# Procedure, shortened: as §3
# [14] = test system: green foxtail (Setaria viridis, SETVI); assay: as above; conditions: post-emerge, 14 days after application, rating scale 0-100
# Procedure, shortened: as §3
# [15] = test system: barnyardgrass (Echinochloa crus-galli, ECHCG); assay: Pre-emerge test, greenhouse herbicide activity screening; conditions: pre-emerge, 14 days after application, rating scale 0-100
# Procedure, shortened: as §2
# [16] = test system: large crabgrass (Digitaria sanguinalis, DIGSA); assay: as above; conditions: pre-emerge, 14 days after application, rating scale 0-100
# Procedure, shortened: as §2
# [17] = test system: ivyleaf morningglory (Ipomoea hederacea, IPOHE); assay: as above; conditions: pre-emerge, 14 days after application, rating scale 0-100
# Procedure, shortened: as §2
# [18] = test system: lambsquarters (Chenopodium album, CHEAL); assay: as above; conditions: pre-emerge, 14 days after application, rating scale 0-100
# Procedure, shortened: as §2
# [19] = test system: johnsongrass (Sorghum halepense, SORHA); assay: as above; conditions: pre-emerge, 14 days after application, rating scale 0-100
# Procedure, shortened: as §2
# [20] = test system: sicklepod (Cassia obtusifolia, CASOB); assay: as above; conditions: pre-emerge, 14 days after application, rating scale 0-100
# Procedure, shortened: as §2
# [21] = test system: velvetleaf (Abutilon theophrasti, ABUTH); assay: as above; conditions: pre-emerge, 14 days after application, rating scale 0-100
# Procedure, shortened: as §2
# [22] = test system: green foxtail (Setaria viridis, SETVI); assay: as above; conditions: pre-emerge, 14 days after application, rating scale 0-100
# Procedure, shortened: as §2
compound,measurement,setting,value
COc1c(Cl)cc(F)c(-n2c(=O)cc(C(F)(F)F)n(C)c2=O)c1NN=C(C)C [15-12],phytotoxicity rating RICE,[1]; 63 g ai/ha,99
same,phytotoxicity rating RICE,[1]; 250 g ai/ha,100
same,phytotoxicity rating CORN,[2]; 63 g ai/ha,100
same,phytotoxicity rating CORN,[2]; 250 g ai/ha,100
same,phytotoxicity rating AMARE,[3]; 63 g ai/ha,100
same,phytotoxicity rating AMARE,[3]; 250 g ai/ha,100
same,Post-emerge Herbicidal Activity RICE (crop damage rating),[4]; 63 g ai/ha,80
same,Post-emerge Herbicidal Activity RICE (crop damage rating),[4]; 250 g ai/ha,99
same,Post-emerge Herbicidal Activity CORN (crop damage rating),[5]; 63 g ai/ha,80
same,Post-emerge Herbicidal Activity CORN (crop damage rating),[5]; 250 g ai/ha,95
same,Post-emerge Herbicidal Activity ECHCG (phytotoxicity rating),[6]; 63 g ai/ha,70
same,Post-emerge Herbicidal Activity ECHCG (phytotoxicity rating),[6]; 250 g ai/ha,100
same,Post-emerge Herbicidal Activity DIGSA (phytotoxicity rating),[7]; 63 g ai/ha,95
same,Post-emerge Herbicidal Activity DIGSA (phytotoxicity rating),[7]; 250 g ai/ha,100
same,Post-emerge Herbicidal Activity IPOHE (phytotoxicity rating),[8]; 63 g ai/ha,100
same,Post-emerge Herbicidal Activity IPOHE (phytotoxicity rating),[8]; 250 g ai/ha,100
same,Post-emerge Herbicidal Activity CHEAL (phytotoxicity rating),[9]; 63 g ai/ha,100
same,Post-emerge Herbicidal Activity CHEAL (phytotoxicity rating),[9]; 250 g ai/ha,100
same,Post-emerge Herbicidal Activity SORHA (phytotoxicity rating),[10]; 63 g ai/ha,80
same,Post-emerge Herbicidal Activity SORHA (phytotoxicity rating),[10]; 250 g ai/ha,99
same,Post-emerge Herbicidal Activity AMARE (phytotoxicity rating),"[11]; 63 g ai/ha, rating scale 0-100 (0 no damage, 100 complete death)",95
same,Post-emerge Herbicidal Activity AMARE (phytotoxicity rating),"[11]; 250 g ai/ha, rating scale 0-100",100
same,Post-emerge Herbicidal Activity CASOB (phytotoxicity rating),[12]; 63 g ai/ha,90
same,Post-emerge Herbicidal Activity CASOB (phytotoxicity rating),[12]; 250 g ai/ha,100
same,Post-emerge Herbicidal Activity ABUTH (phytotoxicity rating),[13]; 63 g ai/ha,100
same,Post-emerge Herbicidal Activity ABUTH (phytotoxicity rating),[13]; 250 g ai/ha,100
same,Post-emerge Herbicidal Activity SETVI (phytotoxicity rating),[14]; 63 g ai/ha,70
same,Post-emerge Herbicidal Activity SETVI (phytotoxicity rating),[14]; 250 g ai/ha,100
same,phytotoxicity rating ECHCG,[15]; 63 g ai/ha,100
same,phytotoxicity rating ECHCG,[15]; 250 g ai/ha,100
same,phytotoxicity rating DIGSA,[16]; 63 g ai/ha,100
same,phytotoxicity rating DIGSA,[16]; 250 g ai/ha,100
same,phytotoxicity rating IPOHE,[17]; 63 g ai/ha,100
same,phytotoxicity rating IPOHE,[17]; 250 g ai/ha,100
same,phytotoxicity rating CHEAL,[18]; 63 g ai/ha,100
same,phytotoxicity rating CHEAL,[18]; 250 g ai/ha,100
same,phytotoxicity rating SORHA,[19]; 63 g ai/ha,100
same,phytotoxicity rating SORHA,[19]; 250 g ai/ha,100
same,phytotoxicity rating CASOB,[20]; 63 g ai/ha,100
same,phytotoxicity rating CASOB,[20]; 250 g ai/ha,100
same,phytotoxicity rating ABUTH,[21]; 63 g ai/ha,100
same,phytotoxicity rating ABUTH,[21]; 250 g ai/ha,100
same,phytotoxicity rating SETVI,[22]; 63 g ai/ha,100
same,phytotoxicity rating SETVI,[22]; 250 g ai/ha,100
